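Briefly, cells in 96-well plates were exposed to five compound concentrations for 48 h, and endpoints were estimated by linear interpolation. Definition used: TGI = concentration required for complete inhibition of growth.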
Legend:
Assay in all cases: NCI tumour cell line growth inhibition, 48 h
[1] = system: MDA-MB-435
[2] = system: NCI-H460 lung
[3] = system: MDA-N
[4] = system: UACC-62 melanoma
[5] = system: HOP-92 NSCLC
[6] = system: HCT-15 colon
[7] = system: LOX IMVI melanoma
[8] = system: SK-MEL-5 melanoma
[9] = system: HL-60(TB) leukemia
[10] = system: IGROV1 ovarian
[11] = system: HCT-116 colon
[12] = system: MDA-MB-231 breast
[13] = system: RXF 393 renal
[14] = system: CAKI-1 renal
[15] = system: PC-3 prostate
[16] = system: SK-MEL-2 melanoma
[17] = system: NCI-H522 lung
[18] = system: A498 renal
[19] = system: ACHN renal
[20] = system: M14 melanoma
[21] = system: OVCAR-4 ovarian
[22] = system: OVCAR-8 ovarian
[23] = system: NCI-H23 lung
[24] = system: HCC-2998 colon
[25] = system: SF-295 CNS
[26] = system: SNB-19 CNS
[27] = system: HOP-62 NSCLC
[28] = system: UACC-257 melanoma
[29] = system: K-562 leukemia
[30] = system: CCRF-CEM leukemia
[31] = system: DU-145 prostate
[32] = system: SW-620 colon
[33] = system: COLO 205 colon
[34] = system: U251 CNS
[35] = system: T-47D breast
[36] = system: SK-OV-3 ovarian
[37] = system: MALME-3M melanoma
[38] = system: NCI/ADR-RES ovarian
[39] = system: KM12 colon
[40] = system: NCI-H226 lung
[41] = system: SF-268 CNS
[42] = system: MCF7 breast
[43] = system: EKVX NSCLC
[44] = system: UO-31 renal
[45] = system: SR leukemia
[46] = system: MOLT-4 leukemia
[47] = system: OVCAR-3 ovarian
[48] = system: SNB-75 CNS
[49] = system: A549 NSCLC
[50] = system: HT29 colon
[51] = system: OVCAR-5 ovarian
[52] = system: SK-MEL-28 melanoma
[53] = system: SN12C renal
[54] = system: 786-0 renal
[55] = system: SF-539 CNS

Measured: TGI

c1ccc([C@H]2CN3CCSC3=N2)cc1
> 100 µM: [1] | [2] | [3] | [4] | [5] | [6] | [7] | [8] | [9] | [10] | [11] | [12] | [13] | [14] | [15] | [16] | [17] | [18] | [19] | [20] | [21] | [22] | [23] | [24] | [25] | [26] | [27] | [28] | [29] | [30] | [31] | [32] | [33] | [34] | [35] | [36] | [37] | [38] | [39] | [40] | [41] | [42] | [43] | [44] | [45] | [46] | [47] | [48] | [49] | [50] | [51] | [52] | [53] | [54] | [55]

Reference: PubChem BioAssay (NCI)
